From article PMC2576352, “The V1-V3 region of a brain-derived HIV-1 envelope glycoprotein determines macrophage tropism, low CD4 dependence, increased fusogenicity and altered sensitivity to entry inhibitors” (Retrovirology, 2008)
Peptide text beside a SMILES is read from it.

Experiments:
[1] = system: Sv1v3 chimeric Env pseudotype; test: Inhibition of pseudotype infection by entry/fusion inhibitors, Sv1v3 Env; type: cell-based, HIV-1; details: HOS-CD4-CCR5 cells, inhibitor + virus 5–6 h at 37°C, luciferase at 2–3 days, non-linear regression, 95% confidence limits in parentheses
Experimental: (§1) To produce Env-pseudotyped, luciferase-reporter viruses, 293T cells were co-transfected using calcium phosphate precipitation (ProFection Mammalian Transfection System, Promega, Madison, WI) with each Env expression vector and with the Env-deficient, pNL4-3-luc^+env^- provirus, developed by N. Landau by introducing a frameshift mutation in the env gene of pNL4-3-luc^+ [87]. Culture supernatants containing the pseudotyped particles were collected 48–72 hours after transfection, clarified by centrifugation, aliquoted and stored at -80°C until use. Pseudotype particles lacking envelope glycoproteins, which are generated by co-transfecting the luciferase HIV-1 pro-viral backbone with an empty expression vector, are used as negative control for all pseudotype infections. Pseudotype stocks were quantitated using a p24^gag antigen capture ELISA (SAIC-National Cancer Institute) and normalized amounts of stocks were used to infect target cells for 5–6 hours at 37°C. At 2–3 days post-infection, the cells were washed with PBS and lysed, and the amount of entry mediated by each Env was measured by detecting luciferase activity (Luciferase Assay System, Promega) in a microplate luminometer (GloMax, Promega), following manufacturer's instructions. Results are obtained as relative light units (RLU) per second. […]

[2] = system: pseudotypes containing wild-type, chimeric and mutant Env; test: Inhibition of pseudotype infection by entry/fusion inhibitors, Env panel; type: cell-based, HIV-1
Experimental: as §1
Inhibition curves obtained by plotting the relative infection (expressed as a percent of untreated) versus the concentration of the inhibitor were analyzed by non-linear regression with a sigmoidal dose-response model (variable slopes) using GraphPad Prism software, version 4.02 (GraphPad Software, San Diego, CA); this analysis uses a four parameter logistic equation, Y = Bottom + (Top-Bottom)/( 1+10^((log10IC50−X)⋅Slope) ) where Y is the response, Bottom is 0 and Top is 100, X is the logarithm of the concentration, and Slope is the slope of the curve. […] Fusogenicity data were analyzed by non-linear regression with a one-phase exponential model (using GraphPad Prism) that uses the equation Y=Ymax(1-e^(-kX)), where Ymax is the maximum response and k is the observed rate. […]

macrophage-tropic Env = details: Peters et al.; cited from earlier work
Text: Therefore, low CD4 dependence seems to correlate not only with fusogenicity and with the sensitivity to fusion and other entry inhibitors, but also with the macrophage tropism of Env. This is in agreement with recent work by Thomas et al. reporting that Env conferring macrophage tropism display low CD4 dependence and higher efficiency of fusion.

[3] = system: Spl(T283N) mutant Env pseudotype; test: Inhibition of pseudotype infection by entry/fusion inhibitors, Spl(T283N) Env; type: cell-based, HIV-1; details: HOS-CD4-CCR5 cells, inhibitor + virus 5–6 h at 37°C, luciferase at 2–3 days, non-linear regression, 95% confidence limits in parentheses
Experimental: as §1

[4] = system: Br (brain-derived) Env pseudotype; type: cell-based, HIV-1; details: HOS-CD4-CCR5 cells, inhibitor + virus 5–6 h at 37°C, luciferase at 2–3 days, non-linear regression, 95% confidence limits in parentheses
Experimental: (§2) To produce Env-pseudotyped, luciferase-reporter viruses, 293T cells were co-transfected using calcium phosphate precipitation (ProFection Mammalian Transfection System, Promega, Madison, WI) with each Env expression vector and with the Env-deficient, pNL4-3-luc^+env^- provirus, developed by N. Landau by introducing a frameshift mutation in the env gene of pNL4-3-luc^+ [87]. Culture supernatants containing the pseudotyped particles were collected 48–72 hours after transfection, clarified by centrifugation, aliquoted and stored at -80°C until use. Pseudotype particles lacking envelope glycoproteins, which are generated by co-transfecting the luciferase HIV-1 pro-viral backbone with an empty expression vector, are used as negative control for all pseudotype infections. Pseudotype stocks were quantitated using a p24^gag antigen capture ELISA (SAIC-National Cancer Institute) and normalized amounts of stocks were used to infect target cells for 5–6 hours at 37°C. At 2–3 days post-infection, the cells were washed with PBS and lysed, and the amount of entry mediated by each Env was measured by detecting luciferase activity (Luciferase Assay System, Promega) in a microplate luminometer (GloMax, Promega), following manufacturer's instructions. Results are obtained as relative light units (RLU) per second. At least three independent experiments were performed for each analysis described below, with 2–8 replicates within each experiment.
(§3) To test for sensitivity to fusion inhibitors, BMS-378806 and HNG-105, the medium from HOS-CD4-CCR5 cells plated in 96-well plates 24 hours before infection, was removed and replaced by fresh medium containing 2× the final concentration of the corresponding inhibitor, and immediately the same volume of viral stocks was added. After 5–6 hours at 37°C, inocula and inhibitors were removed and the cells were incubated for 2–3 days before evaluating the amount of infection.
(§4) Inhibition curves obtained by plotting the relative infection (expressed as a percent of untreated) versus the concentration of the inhibitor were analyzed by non-linear regression with a sigmoidal dose-response model (variable slopes) using GraphPad Prism software, version 4.02 (GraphPad Software, San Diego, CA); this analysis uses a four parameter logistic equation, Y = Bottom + (Top-Bottom)/( 1+10^((log10IC50−X)⋅Slope) ) where Y is the response, Bottom is 0 and Top is 100, X is the logarithm of the concentration, and Slope is the slope of the curve. 50% inhibitory concentrations (IC50) and 95% confidence intervals were estimated from the non-linear regression analysis. Fusogenicity data were analyzed by non-linear regression with a one-phase exponential model (using GraphPad Prism) that uses the equation Y=Ymax(1-e^(-kX)), where Ymax is the maximum response and k is the observed rate. CD4 dependence data were analyzed with SPSS, version 16, using the non-parametric Mann-Whitney test.

[5] = system: Spl (spleen-derived) Env pseudotype; type: cell-based, HIV-1; details: HOS-CD4-CCR5 cells, inhibitor + virus 5–6 h at 37°C, luciferase at 2–3 days, non-linear regression, 95% confidence limits in parentheses
Experimental: as §2, §3, §4

[6] = system: Bv1v2 chimeric Env pseudotype; type: cell-based, HIV-1; details: HOS-CD4-CCR5 cells, inhibitor + virus 5–6 h at 37°C, luciferase at 2–3 days, non-linear regression, 95% confidence limits in parentheses
Experimental: as §2, §3, §4

[7] = system: BS chimeric Env (brain gp120-spleen gp41) pseudotype; type: cell-based, HIV-1; details: HOS-CD4-CCR5 cells, inhibitor + virus 5–6 h at 37°C, luciferase at 2–3 days, non-linear regression, 95% confidence limits in parentheses
Experimental: as §2, §3, §4

[8] = system: Br(N283T) mutant Env pseudotype; type: cell-based, HIV-1; details: HOS-CD4-CCR5 cells, inhibitor + virus 5–6 h at 37°C, luciferase at 2–3 days, non-linear regression, 95% confidence limits in parentheses
Experimental: as §2, §3, §4

[9] = system: DS17(N283T) mutant Env pseudotype; type: cell-based, HIV-1; details: HOS-CD4-CCR5 cells, inhibitor + virus 5–6 h at 37°C, luciferase at 2–3 days, non-linear regression, 95% confidence limits in parentheses
Experimental: as §2, §3, §4

BaL Env pseudotype = type: cell-based, HIV-1; details: HOS-CD4-CCR5 cells, inhibitor + virus 5–6 h at 37°C, luciferase at 2–3 days, non-linear regression, 95% confidence limits in parentheses
Experimental: as §2, §3, §4

DS17 Env pseudotype = type: cell-based, HIV-1; details: HOS-CD4-CCR5 cells, inhibitor + virus 5–6 h at 37°C, luciferase at 2–3 days, non-linear regression, 95% confidence limits in parentheses
Experimental: as §2, §3, §4

[10] = system: SB chimeric Env (spleen gp120-brain gp41) pseudotype; type: cell-based, HIV-1; details: HOS-CD4-CCR5 cells, inhibitor + virus 5–6 h at 37°C, luciferase at 2–3 days, non-linear regression, 95% confidence limits in parentheses
Experimental: as §2, §3, §4

[11] = system: Bv1v3 chimeric Env pseudotype; type: cell-based, HIV-1; details: HOS-CD4-CCR5 cells, inhibitor + virus 5–6 h at 37°C, luciferase at 2–3 days, non-linear regression, 95% confidence limits in parentheses
Experimental: as §2, §3, §4

HxB Env pseudotype = test: Inhibition of pseudotype infection by entry/fusion inhibitors, HxB Env; type: cell-based, HIV-1; details: inhibitor + virus 5–6 h at 37°C, luciferase at 2–3 days, non-linear regression, 95% confidence limits in parentheses
Experimental: as §1

[12] = system: Sv1v2 chimeric Env pseudotype; test: Inhibition of pseudotype infection by entry/fusion inhibitors, Sv1v2 Env; type: cell-based, HIV-1; details: HOS-CD4-CCR5 cells, inhibitor + virus 5–6 h at 37°C, luciferase at 2–3 days, non-linear regression, 95% confidence limits in parentheses
Experimental: as §1

In the case of COc1ccnc2[nH]cc(C(=O)C(=O)N3CCN(C(=O)c4ccccc4)C[C@H]3C)c12 [BMS-378806], the IC50 [1] is reported as 0.9 nM, the “sensitivity of pseudotypes to inhibitor” value ([2]; BR, BR(N283T), BS and Bv1v3 Env vs SPL, SPL(T283N), SB, Sv1v3 or Sv1v2) is reported as “significantly less sensitive to inhibition by BMS-378806” and the “sensitivity of pseudotypes to inhibitor” value ([2]; DS17 and DS17(N283T) Env vs BR and Env with related phenotype) is reported as “reduced sensitivity to BMS-378806 as compared to the BR”. For the same compound, the “relation of inhibitor sensitivity to macrophage tropism” value (macrophage-tropic Env) was “correlated with increasing macrophage tropism”, the IC50 [3] was 0.9 nM and the IC50 [4] was 15 nM. The IC50 [5] was 1.8 nM, the IC50 [6] was 4.8 nM and the IC50 [7] was 20 nM. It also gave an IC50 [8] of 13 nM, an IC50 [9] of 32 nM and an IC50 (BaL Env pseudotype) of 29 nM. The IC50 (DS17 Env pseudotype) was 41 nM, the IC50 [10] was 2 nM and the IC50 [11] was 8.2 nM. It also gave an IC50 (HxB Env pseudotype) of 3.9 nM and an IC50 [12] of 1.2 nM.
For CC[C@H](C)[C@H](NC(=O)[C@H](CCC(N)=O)NC(=O)[C@H](C)NC(=O)[C@H](CCC(N)=O)NC(=O)[C@H](CCC(=O)O)NC(=O)[C@H](CC(C)C)NC(=O)[C@H](CC(C)C)NC(=O)[C@H](C)NC(=O)[C@@H](NC(=O)[C@@H](NC(=O)[C@H](CCCCN)NC(=O)[C@H](CCC(N)=O)NC(=O)[C@H](CCC(=O)O)NC(=O)[C@H](Cc1c[nH]c2ccccc12)NC(=O)[C@H](CCC(=O)O)NC(=O)[C@H](CCC(N)=O)NC(=O)[C@@H](N)Cc1c[nH]c2ccccc12)[C@@H](C)CC)[C@@H](C)O)C(=O)N[C@@H](CCC(N)=O)C(=O)N[C@@H](CCC(N)=O)C(=O)N[C@@H](CCC(=O)O)C(=O)N[C@@H](CCSC)C(=O)N[C@@H](CC(N)=O)C(=O)N[C@@H](CCC(=O)O)C(=O)N[C@@H](CCC(N)=O)C(=O)N[C@@H](CCC(=O)O)C(=O)N[C@@H](CC(C)C)C(=O)N[C@@H](CCC(N)=O)C(=O)N[C@@H](CCCCN)C(=O)N[C@@H](CC(C)C)C(=O)N[C@@H](CC(=O)O)C(=O)N[C@H](C(=O)N[C@@H](Cc1c[nH]c2ccccc12)C(=O)N[C@@H](C)C(=O)N[C@@H](CO)C(=O)N[C@@H](CC(C)C)C(=O)N[C@@H](Cc1c[nH]c2ccccc12)C(=O)N[C@@H](CCC(=O)O)C(=O)N[C@@H](Cc1c[nH]c2ccccc12)C(=O)N[C@@H](Cc1ccccc1)C(=O)O)[C@@H](C)O [T-1249-BR] (H-WQEWEQKITALLEQAQIQQEMNEQELQKLDTWASLWEWF-OH), the IC50 [4] was 195 nM, the IC50 [5] was 27 nM and the IC50 [6] was 155 nM. For the same compound, the IC50 [7] was 155 nM, the IC50 [8] was 221 nM and the IC50 [9] was 104 nM. For the same compound, the IC50 (BaL Env pseudotype) was 124 nM, the IC50 (DS17 Env pseudotype) was 92 nM and the IC50 [10] was 41 nM. The IC50 [11] was 245 nM.
CC[C@H](C)[C@H](NC(=O)[C@H](CCC(N)=O)NC(=O)[C@H](C)NC(=O)[C@H](CCC(N)=O)NC(=O)[C@H](CCC(=O)O)NC(=O)[C@H](CC(C)C)NC(=O)[C@H](CC(C)C)NC(=O)[C@H](C)NC(=O)[C@@H](NC(=O)[C@@H](NC(=O)[C@H](CCCCN)NC(=O)[C@H](CCC(N)=O)NC(=O)[C@H](CCC(=O)O)NC(=O)[C@H](Cc1c[nH]c2ccccc12)NC(=O)[C@H](CCC(=O)O)NC(=O)[C@H](CCC(N)=O)NC(=O)[C@@H](N)Cc1c[nH]c2ccccc12)[C@@H](C)CC)[C@@H](C)O)C(=O)N[C@@H](CCC(N)=O)C(=O)N[C@@H](CCC(N)=O)C(=O)N[C@@H](CCC(=O)O)C(=O)N[C@@H](CCCCN)C(=O)N[C@@H](CC(N)=O)C(=O)N[C@@H](CCC(=O)O)C(=O)N[C@@H](Cc1ccc(O)cc1)C(=O)N[C@@H](CCC(=O)O)C(=O)N[C@@H](CC(C)C)C(=O)N[C@@H](CCC(N)=O)C(=O)N[C@@H](CCCCN)C(=O)N[C@@H](CC(C)C)C(=O)N[C@@H](CC(=O)O)C(=O)N[C@@H](CCCCN)C(=O)N[C@@H](Cc1c[nH]c2ccccc12)C(=O)N[C@@H](C)C(=O)N[C@@H](CO)C(=O)N[C@@H](CC(C)C)C(=O)N[C@@H](Cc1c[nH]c2ccccc12)C(=O)N[C@@H](CCC(=O)O)C(=O)N[C@@H](Cc1c[nH]c2ccccc12)C(=O)N[C@@H](Cc1ccccc1)C(=O)O [T-1249] gave an IC50 [4] of 173 nM, an IC50 [5] of 37 nM and an IC50 [6] of 224 nM. It also gave an IC50 [7] of 140 nM, an IC50 [8] of 166 nM and an IC50 [9] of 155 nM. The IC50 (BaL Env pseudotype) was 102 nM, the IC50 (DS17 Env pseudotype) was 210 nM and the IC50 [10] was 83 nM. It also gave an IC50 [11] of 227 nM.
